From PubChem BioAssay AID2060493 (Molecular Pharmacology Branch, DTP, NCI, 2025)

Tested on: 616215-338-R-J1-PDC tumor spheroids, viability
Assay: Anticancer human tumor 616215-338-R-J1-PDC patient-derived colon adenocarcinoma cell line growth inhibition [GQUAD]
Conditions: spheroids with HUVEC and MSC; for IC50: curve of first compound; for viability, T/C: stronger effect = lower value
Summary of the method: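 Viability of tumor cells grown as complex spheroids with endothelial and stromal cells, exposed to drug combinations. Top concentration at or near clinical Cmax (else 10 microM), diluted in half-log increments.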

[1] = second compound 0.0316 µM, first compound 0.0316 µM
[2] = second compound 0.0316 µM, first compound 0.1 µM
[3] = second compound 0.0316 µM, first compound 0.316 µM
[4] = second compound 0.0316 µM, first compound 1 µM
[5] = second compound 0.0316 µM, first compound 3.16 µM
[6] = second compound 0.0316 µM, first compound 10 µM
[7] = second compound 0.1 µM, first compound 0.0316 µM
[8] = second compound 0.1 µM, first compound 0.1 µM
[9] = second compound 0.1 µM, first compound 0.316 µM
[10] = second compound 0.1 µM, first compound 1 µM
[11] = second compound 0.1 µM, first compound 3.16 µM
[12] = second compound 0.1 µM, first compound 10 µM
[13] = second compound 0.316 µM, first compound 0.0316 µM
[14] = second compound 0.316 µM, first compound 0.1 µM
[15] = second compound 0.316 µM, first compound 0.316 µM
[16] = second compound 0.316 µM, first compound 1 µM
[17] = second compound 0.316 µM, first compound 3.16 µM
[18] = second compound 0.316 µM, first compound 10 µM
[19] = second compound 1 µM, first compound 0.0316 µM
[20] = second compound 1 µM, first compound 0.1 µM
[21] = second compound 1 µM, first compound 0.316 µM
[22] = second compound 1 µM, first compound 1 µM
[23] = second compound 1 µM, first compound 3.16 µM
[24] = second compound 1 µM, first compound 10 µM
[25] = second compound 3.16 µM, first compound 0.0316 µM
[26] = second compound 3.16 µM, first compound 0.1 µM
[27] = second compound 3.16 µM, first compound 0.316 µM
[28] = second compound 3.16 µM, first compound 1 µM
[29] = second compound 3.16 µM, first compound 3.16 µM
[30] = second compound 3.16 µM, first compound 10 µM
[31] = second compound 10 µM, first compound 0.0316 µM
[32] = second compound 10 µM, first compound 0.1 µM
[33] = second compound 10 µM, first compound 0.316 µM
[34] = second compound 10 µM, first compound 1 µM
[35] = second compound 10 µM, first compound 3.16 µM
[36] = second compound 10 µM, first compound 10 µM
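Also: spheroids exposed to agents for 7 days before readout.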
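For viability, T/C in this document: percent viability relative to DMSO vehicle control wells taken as 100%.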

Q: For `CC(C)n1c(=O)n(C)c2cnc3cc(F)c(-c4ccc(OCCCN5CCCCC5)nc4)cc3c21` + CN(C)c1ccc(Nc2c3ccc(NC(=O)CCN4CCCC4)cc3nc3cc(NC(=O)CCN4CCCC4)ccc23)cc1, which IC50 (second compound 0.0316 µM) is on record?
A: > 10000 nM

Q: And the IC50 (second compound 0.1 µM)?
A: > 10000 nM

Q: What about the IC50 (second compound 0.316 µM) of the same molecule?
A: > 10000 nM

Q: What about the IC50 (second compound 1 µM) of the same molecule?
A: > 10000 nM

Q: What about the IC50 (second compound 3.16 µM) of the same molecule?
A: 9930 nM

Q: What about the IC50 (second compound 10 µM) of the same molecule?
A: 3090 nM

Q: What about the viability, T/C [1] of the same molecule?
A: 110%

Q: What about the viability, T/C [2] of the same molecule?
A: 112%

Q: And the viability, T/C [3]?
A: 96.3%

Q: What about the viability, T/C [4] of the same molecule?
A: 109%

Q: And the viability, T/C [5]?
A: 105%

Q: And the viability, T/C [6]?
A: 62.2%

Q: What about the viability, T/C [7] of the same molecule?
A: 110%

Q: And the viability, T/C [8]?
A: 104%

Q: And the viability, T/C [9]?
A: 101%

Q: And the viability, T/C [10]?
A: 111%

Q: What about the viability, T/C [11] of the same molecule?
A: 103%

Q: And the viability, T/C [12]?
A: 81.1%

Q: And the viability, T/C [13]?
A: 97.2%

Q: And the viability, T/C [14]?
A: 99.7%

Q: And the viability, T/C [15]?
A: 97.8%

Q: What about the viability, T/C [16] of the same molecule?
A: 103%

Q: And the viability, T/C [17]?
A: 121%

Q: And the viability, T/C [18]?
A: 95.7%

Q: What about the viability, T/C [19] of the same molecule?
A: 101%

Q: What about the viability, T/C [20] of the same molecule?
A: 97.2%

Q: And the viability, T/C [21]?
A: 103%

Q: And the viability, T/C [22]?
A: 97.9%

Q: What about the viability, T/C [23] of the same molecule?
A: 111%

Q: And the viability, T/C [24]?
A: 83.5%

Q: What about the viability, T/C [25] of the same molecule?
A: 105%

Q: What about the viability, T/C [26] of the same molecule?
A: 101%

Q: What about the viability, T/C [27] of the same molecule?
A: 101%

Q: And the viability, T/C [28]?
A: 91.9%

Q: And the viability, T/C [29]?
A: 100%

Q: And the viability, T/C [30]?
A: 49.6%

Q: What about the viability, T/C [31] of the same molecule?
A: 95.8%

Q: What about the viability, T/C [32] of the same molecule?
A: 77.1%

Q: What about the viability, T/C [33] of the same molecule?
A: 55.6%

Q: What about the viability, T/C [34] of the same molecule?
A: 64.6%

Q: And the viability, T/C [35]?
A: 61.6%

Q: What about the viability, T/C [36] of the same molecule?
A: 7.08%

Q: `COc1cc(C2c3cc4c(cc3C(OC3OC5COC(C)OC5C(O)C3O)C3COC(=O)C23)OCO4)cc(OC)c1O` (centres undefined) + Cc1cnc(CNC(=O)c2c(=O)c3ccc(N4CCCN(C)CC4)nc3n3c2sc2ccccc23)cn1 was tested. Which IC50 (second compound 0.0316 µM) did it give?
A: 481 nM

Q: And the IC50 (second compound 0.1 µM)?
A: 456 nM

Q: And the IC50 (second compound 0.316 µM)?
A: < 31.6 nM

Q: And the IC50 (second compound 1 µM)?
A: < 31.6 nM

Q: What about the IC50 (second compound 3.16 µM) of the same molecule?
A: < 31.6 nM

Q: And the IC50 (second compound 10 µM)?
A: < 31.6 nM

Q: And the viability, T/C [1]?
A: 104%

Q: What about the viability, T/C [2] of the same molecule?
A: 98.3%

Q: And the viability, T/C [3]?
A: 54.3%

Q: What about the viability, T/C [4] of the same molecule?
A: 44.2%

Q: What about the viability, T/C [5] of the same molecule?
A: 57.3%

Q: What about the viability, T/C [6] of the same molecule?
A: 23.9%

Q: And the viability, T/C [7]?
A: 65.7%

Q: And the viability, T/C [8]?
A: 61%

Q: And the viability, T/C [9]?
A: 55.8%

Q: And the viability, T/C [10]?
A: 38.8%

Q: What about the viability, T/C [11] of the same molecule?
A: 32.2%

Q: And the viability, T/C [12]?
A: 30.6%

Q: What about the viability, T/C [13] of the same molecule?
A: 39.5%

Q: What about the viability, T/C [14] of the same molecule?
A: 46.2%

Q: And the viability, T/C [15]?
A: 29.3%

Q: And the viability, T/C [16]?
A: 36.3%

Q: What about the viability, T/C [17] of the same molecule?
A: 30.6%

Q: And the viability, T/C [18]?
A: 17.7%

Q: What about the viability, T/C [19] of the same molecule?
A: 32.3%

Q: What about the viability, T/C [20] of the same molecule?
A: 32.8%

Q: And the viability, T/C [21]?
A: 33.8%

Q: What about the viability, T/C [22] of the same molecule?
A: 34.3%

Q: What about the viability, T/C [23] of the same molecule?
A: 23.3%

Q: And the viability, T/C [24]?
A: 18.4%

Q: What about the viability, T/C [25] of the same molecule?
A: 34.5%

Q: What about the viability, T/C [26] of the same molecule?
A: 23.7%

Q: What about the viability, T/C [27] of the same molecule?
A: 28.3%

Q: What about the viability, T/C [28] of the same molecule?
A: 27%

Q: And the viability, T/C [29]?
A: 28.2%

Q: And the viability, T/C [30]?
A: 24.3%

Q: What about the viability, T/C [31] of the same molecule?
A: 28.2%

Q: What about the viability, T/C [32] of the same molecule?
A: 29.7%

Q: What about the viability, T/C [33] of the same molecule?
A: 26.6%

Q: What about the viability, T/C [34] of the same molecule?
A: 36.3%

Q: And the viability, T/C [35]?
A: 22.3%

Q: And the viability, T/C [36]?
A: 23.8%
